# Test results: article PMC5522050, “Sulfatinib, a novel kinase inhibitor, in patients with advanced solid tumors: results from a phase I study” (Oncotarget, 2017)
# Where two headings read alike, the source gives them in different places.
# Legend:
# [1] = test system: patients with advanced solid tumors; test: phase I safety and tolerability (AEs, DLTs, MTD); format: in vivo; conditions: doses of 50-350 mg QD and 125-150 mg BID; up to 350 mg QD (formulation 2)
# Description: The primary objectives of this open-label, first-in-human phase I study (NCT02133157) were to determine MTD and the phase II dose of sulfatinib, and to evaluate the safety of sulfatinib in patients with advanced solid tumors. The secondary and exploratory objectives included evaluation of sulfatinib PK and preliminary anti-tumor activity. The study consisted of a dose-escalation phase (split into a single-dose period and continuous-dose period) and a tumor-specific expansion phase. Two sulfatinib formulations were used during the study: formulation 1 (5, 25, and 50 mg capsules) and formulation 2 (50 and 200 mg capsules). […]
# During the dose-escalation phase, patients were given a single dose of sulfatinib and monitored for AEs for seven days. […] DLTs were assessed at the end of the 28-day period. […]
# The study used a modified Fibonacci 3+3 dose-escalation design with at least three evaluable patients treated with each dose. […] If two or more of the first three or overall six patients experienced a DLT, the MTD was considered exceeded and the previous lower dose would be re-assessed to determine the MTD. […]
# Safety and tolerability were assessed in all patients who received at least one dose of sulfatinib throughout the study. AEs were recorded throughout the study. […]
# [2] = biological target: 278 other kinases; test: kinase selectivity profile (broad kinase screening); format: biochemical
# Description: (§1) Table 1 Sulfatinib kinase selectivity profile | column: IC50 (μM)
# [3] = test system: advanced solid tumors; test: tumor response by RECIST Version 1.0; format: in vivo, human
# Protocol: Patients with NETs were enrolled with priority as preliminary efficacy was shown in these tumor types in the dose-escalation stage. Tumor response (an exploratory endpoint) was assessed according to RECIST Version 1.0 and measured at baseline, at the end of every treatment cycle in the first four cycles, and every other cycle thereafter. […] Calculations of the following parameters were made: ORR (CR + PR); SD defined as ≥1 assessment of SD at least six weeks after study entry; DCR (CR + PR + SD). TTR, DoR and PFS were analyzed in the subgroup of patients with NET.
# [4] = biological target: VEGFR 2 (Homo sapiens, UniProt P35968); test: kinase selectivity profile; format: biochemical
# Description: as §1
# [5] = biological target: CSF1R (Homo sapiens, UniProt P07333); test: kinase selectivity profile; format: biochemical
# Description: as §1
# [6] = biological target: FGFR1 (Homo sapiens, UniProt P11362); test: kinase selectivity profile; format: biochemical
# Description: as §1
# [7] = biological target: T1, FLT3 (Homo sapiens, UniProt P36888); test: kinase selectivity profile; format: biochemical
# T1 sequence (P36888 27-993): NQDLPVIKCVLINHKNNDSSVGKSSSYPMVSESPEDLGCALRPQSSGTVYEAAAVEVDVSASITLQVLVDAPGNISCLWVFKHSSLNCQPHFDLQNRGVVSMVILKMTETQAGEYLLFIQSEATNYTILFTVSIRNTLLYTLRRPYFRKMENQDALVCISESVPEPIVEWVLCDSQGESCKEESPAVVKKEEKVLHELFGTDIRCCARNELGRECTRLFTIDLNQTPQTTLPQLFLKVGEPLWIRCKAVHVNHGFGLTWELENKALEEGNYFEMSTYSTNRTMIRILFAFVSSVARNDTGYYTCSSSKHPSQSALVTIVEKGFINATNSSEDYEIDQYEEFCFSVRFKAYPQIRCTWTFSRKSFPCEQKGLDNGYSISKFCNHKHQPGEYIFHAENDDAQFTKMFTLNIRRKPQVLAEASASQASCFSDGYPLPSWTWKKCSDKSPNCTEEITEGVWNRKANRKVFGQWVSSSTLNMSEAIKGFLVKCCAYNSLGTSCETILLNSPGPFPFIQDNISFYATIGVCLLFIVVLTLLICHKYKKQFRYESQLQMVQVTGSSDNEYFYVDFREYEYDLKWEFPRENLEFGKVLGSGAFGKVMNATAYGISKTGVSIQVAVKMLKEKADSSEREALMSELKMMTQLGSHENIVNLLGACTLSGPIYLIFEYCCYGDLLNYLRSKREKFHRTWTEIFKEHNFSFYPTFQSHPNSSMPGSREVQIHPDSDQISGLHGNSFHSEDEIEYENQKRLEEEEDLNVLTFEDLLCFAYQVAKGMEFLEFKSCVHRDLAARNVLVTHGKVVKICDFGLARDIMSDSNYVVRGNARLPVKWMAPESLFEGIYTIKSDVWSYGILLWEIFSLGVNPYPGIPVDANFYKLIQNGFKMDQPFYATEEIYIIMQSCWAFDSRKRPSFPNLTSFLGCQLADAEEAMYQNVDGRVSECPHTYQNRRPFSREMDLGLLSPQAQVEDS
# Description: as §1
# [8] = biological target: VEGFR 1 (Homo sapiens, UniProt P17948); test: kinase selectivity profile; format: biochemical
# Description: as §1
# [9] = biological target: TrkB (Homo sapiens, UniProt Q16620); test: kinase selectivity profile; format: biochemical
# Description: as §1
# [10] = biological target: VEGFR 3 (Homo sapiens, UniProt P35916); test: kinase selectivity profile; format: biochemical
# Description: as §1
# [11] = test system: pancreatic NET patients; design: method as in PMID 21306238; conditions: phase III trial; cited from earlier work
# [12] = test system: GI and lung NET patients; design: method as in PMID 26703889; conditions: phase III trial; cited from earlier work
# [13] = test system: pancreatic NET patients; design: method as in PMID 21306237; conditions: phase III trial; cited from earlier work
# [14] = three NET patients who progressed on prior VEGFR kinase inhibitors
# CSF1R, sequence (P07333 20-972): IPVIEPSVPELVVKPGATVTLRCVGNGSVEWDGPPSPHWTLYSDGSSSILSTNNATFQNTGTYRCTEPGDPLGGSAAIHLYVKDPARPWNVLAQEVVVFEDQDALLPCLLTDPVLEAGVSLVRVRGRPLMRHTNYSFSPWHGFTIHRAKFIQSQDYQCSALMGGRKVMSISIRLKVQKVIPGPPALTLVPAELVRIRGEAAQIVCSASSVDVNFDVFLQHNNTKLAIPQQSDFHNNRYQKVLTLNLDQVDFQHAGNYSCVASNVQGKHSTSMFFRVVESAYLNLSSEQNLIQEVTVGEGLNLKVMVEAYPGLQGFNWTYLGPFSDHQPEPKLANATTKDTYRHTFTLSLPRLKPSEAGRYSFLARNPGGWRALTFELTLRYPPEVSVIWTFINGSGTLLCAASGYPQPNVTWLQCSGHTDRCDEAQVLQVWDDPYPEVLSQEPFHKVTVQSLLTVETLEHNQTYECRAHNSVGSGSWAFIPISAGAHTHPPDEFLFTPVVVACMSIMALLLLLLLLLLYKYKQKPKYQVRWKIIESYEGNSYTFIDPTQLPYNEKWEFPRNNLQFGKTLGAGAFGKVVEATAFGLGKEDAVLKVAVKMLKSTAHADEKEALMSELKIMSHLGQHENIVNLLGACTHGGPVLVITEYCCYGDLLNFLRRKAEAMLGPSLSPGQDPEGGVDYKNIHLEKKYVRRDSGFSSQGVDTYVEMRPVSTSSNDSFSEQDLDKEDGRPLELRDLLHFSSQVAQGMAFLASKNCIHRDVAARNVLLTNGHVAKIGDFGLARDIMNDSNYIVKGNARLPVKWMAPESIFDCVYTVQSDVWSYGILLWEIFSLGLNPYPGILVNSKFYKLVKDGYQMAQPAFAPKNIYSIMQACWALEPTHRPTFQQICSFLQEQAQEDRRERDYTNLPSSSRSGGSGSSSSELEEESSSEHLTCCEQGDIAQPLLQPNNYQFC
# VEGFR 1, sequence (P17948 27-1338): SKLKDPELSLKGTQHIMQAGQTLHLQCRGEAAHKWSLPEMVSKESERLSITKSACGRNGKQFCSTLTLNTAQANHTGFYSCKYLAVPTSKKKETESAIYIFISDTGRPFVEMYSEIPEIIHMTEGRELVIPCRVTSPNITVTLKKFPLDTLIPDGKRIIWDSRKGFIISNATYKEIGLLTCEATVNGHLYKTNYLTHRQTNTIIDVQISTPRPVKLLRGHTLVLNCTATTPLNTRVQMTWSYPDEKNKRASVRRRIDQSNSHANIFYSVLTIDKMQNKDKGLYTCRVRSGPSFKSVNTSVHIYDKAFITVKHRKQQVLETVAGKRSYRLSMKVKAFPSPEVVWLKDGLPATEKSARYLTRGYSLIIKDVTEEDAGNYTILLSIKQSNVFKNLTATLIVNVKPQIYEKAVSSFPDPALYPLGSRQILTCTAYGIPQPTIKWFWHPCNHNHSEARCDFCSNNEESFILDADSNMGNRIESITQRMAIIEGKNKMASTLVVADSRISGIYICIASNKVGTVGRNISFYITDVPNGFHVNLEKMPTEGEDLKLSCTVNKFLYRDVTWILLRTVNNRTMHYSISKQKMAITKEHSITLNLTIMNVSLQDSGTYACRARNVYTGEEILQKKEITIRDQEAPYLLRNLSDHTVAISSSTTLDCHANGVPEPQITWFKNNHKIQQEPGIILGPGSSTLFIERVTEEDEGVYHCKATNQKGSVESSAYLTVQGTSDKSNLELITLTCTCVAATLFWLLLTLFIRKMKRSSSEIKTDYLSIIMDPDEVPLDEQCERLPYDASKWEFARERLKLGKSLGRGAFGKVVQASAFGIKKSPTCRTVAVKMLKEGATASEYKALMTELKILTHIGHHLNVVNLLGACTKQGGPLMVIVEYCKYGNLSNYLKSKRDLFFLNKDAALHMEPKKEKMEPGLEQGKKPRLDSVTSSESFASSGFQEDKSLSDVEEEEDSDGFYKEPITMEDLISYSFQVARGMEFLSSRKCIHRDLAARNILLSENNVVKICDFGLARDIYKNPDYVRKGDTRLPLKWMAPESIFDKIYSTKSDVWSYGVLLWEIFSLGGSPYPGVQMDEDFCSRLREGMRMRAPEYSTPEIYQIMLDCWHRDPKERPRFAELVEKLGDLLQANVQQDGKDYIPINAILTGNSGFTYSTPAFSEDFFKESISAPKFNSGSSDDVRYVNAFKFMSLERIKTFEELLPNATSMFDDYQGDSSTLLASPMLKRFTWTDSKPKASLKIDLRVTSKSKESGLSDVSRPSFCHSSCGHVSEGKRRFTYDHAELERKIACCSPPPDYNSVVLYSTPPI
# TrkB, sequence (Q16620 32-822): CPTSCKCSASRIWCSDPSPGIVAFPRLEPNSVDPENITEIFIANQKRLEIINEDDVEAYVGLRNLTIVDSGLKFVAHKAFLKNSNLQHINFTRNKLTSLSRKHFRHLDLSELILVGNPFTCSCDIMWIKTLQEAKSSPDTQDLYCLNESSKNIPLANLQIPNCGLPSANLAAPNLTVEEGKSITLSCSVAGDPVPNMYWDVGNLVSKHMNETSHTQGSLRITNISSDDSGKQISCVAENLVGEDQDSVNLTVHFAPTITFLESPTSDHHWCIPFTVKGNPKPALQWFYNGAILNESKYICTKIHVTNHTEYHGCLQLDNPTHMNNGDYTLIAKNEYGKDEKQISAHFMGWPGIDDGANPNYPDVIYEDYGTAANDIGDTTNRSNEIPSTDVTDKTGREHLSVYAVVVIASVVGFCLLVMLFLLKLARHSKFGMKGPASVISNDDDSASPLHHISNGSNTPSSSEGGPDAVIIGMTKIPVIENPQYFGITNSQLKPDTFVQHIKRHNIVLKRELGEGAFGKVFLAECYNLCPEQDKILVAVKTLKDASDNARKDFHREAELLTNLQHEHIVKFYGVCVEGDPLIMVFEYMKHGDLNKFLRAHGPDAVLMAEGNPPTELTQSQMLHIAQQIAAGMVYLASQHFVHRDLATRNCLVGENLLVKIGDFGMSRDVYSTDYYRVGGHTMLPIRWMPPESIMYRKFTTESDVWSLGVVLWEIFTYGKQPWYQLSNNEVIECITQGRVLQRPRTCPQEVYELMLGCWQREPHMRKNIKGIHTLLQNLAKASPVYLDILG
# VEGFR 2, sequence (P35968 20-1356): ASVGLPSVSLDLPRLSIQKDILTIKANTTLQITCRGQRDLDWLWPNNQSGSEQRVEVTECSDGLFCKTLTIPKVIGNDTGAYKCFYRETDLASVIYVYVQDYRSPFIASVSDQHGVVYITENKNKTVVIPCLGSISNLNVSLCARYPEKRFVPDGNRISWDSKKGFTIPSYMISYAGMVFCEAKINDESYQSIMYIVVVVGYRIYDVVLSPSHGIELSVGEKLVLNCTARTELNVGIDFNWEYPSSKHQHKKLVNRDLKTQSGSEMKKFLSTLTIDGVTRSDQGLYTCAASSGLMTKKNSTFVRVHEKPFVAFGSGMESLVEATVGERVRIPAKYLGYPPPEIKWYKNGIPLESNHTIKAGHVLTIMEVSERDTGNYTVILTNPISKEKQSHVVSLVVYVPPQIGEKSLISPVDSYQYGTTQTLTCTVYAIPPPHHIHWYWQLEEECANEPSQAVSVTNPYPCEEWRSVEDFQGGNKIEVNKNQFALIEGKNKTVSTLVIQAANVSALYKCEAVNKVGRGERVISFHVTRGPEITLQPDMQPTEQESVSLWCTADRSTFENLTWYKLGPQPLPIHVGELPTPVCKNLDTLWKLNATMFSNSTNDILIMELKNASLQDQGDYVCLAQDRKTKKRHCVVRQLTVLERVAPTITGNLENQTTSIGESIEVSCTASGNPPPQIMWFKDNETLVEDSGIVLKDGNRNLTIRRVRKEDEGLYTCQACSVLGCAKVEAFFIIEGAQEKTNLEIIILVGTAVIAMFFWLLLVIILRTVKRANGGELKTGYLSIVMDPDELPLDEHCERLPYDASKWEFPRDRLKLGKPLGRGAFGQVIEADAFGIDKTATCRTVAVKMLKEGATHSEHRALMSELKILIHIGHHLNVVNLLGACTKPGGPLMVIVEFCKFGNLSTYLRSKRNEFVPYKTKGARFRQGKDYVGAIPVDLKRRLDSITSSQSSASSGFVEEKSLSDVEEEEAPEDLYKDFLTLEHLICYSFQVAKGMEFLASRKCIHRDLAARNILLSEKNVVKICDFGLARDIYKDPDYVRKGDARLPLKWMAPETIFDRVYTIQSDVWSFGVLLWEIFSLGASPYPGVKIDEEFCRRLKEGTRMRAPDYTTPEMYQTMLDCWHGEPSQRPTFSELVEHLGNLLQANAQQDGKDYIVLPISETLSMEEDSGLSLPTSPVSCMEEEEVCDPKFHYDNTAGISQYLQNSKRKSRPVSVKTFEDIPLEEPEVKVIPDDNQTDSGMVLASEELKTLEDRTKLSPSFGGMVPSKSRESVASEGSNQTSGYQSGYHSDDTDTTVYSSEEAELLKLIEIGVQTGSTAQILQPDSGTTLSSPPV
structure (smiles),measurement,setting,value
Cc1cc2cc(Oc3ccnc(Nc4cccc(CS(=O)(=O)NCCN(C)C)c4)n3)ccc2[nH]1 [Sulfatinib],maximum tolerated dose (MTD),[1],not reached
same,IC50,[2],> 150 nM
same,patients with confirmed PR,[3]; all 77 patients,Nine
same,patients with sustainable SD,[3]; all 77 patients,23
same,objective response rate (ORR),[3]; all 77 patients (9/77),11.7%
same,disease control rate (DCR),[3]; all 77 patients (32/77),41.6%
same,patients achieving PR,[3]; [14],one
same,patients achieving SD,[3]; [14],two
same,IC50,[4],24 nM
same,IC50,[5],4 nM
same,IC50,[6],15 nM
same,IC50,[7],67 nM
same,IC50,[8],2 nM
same,IC50,[9],41 nM
same,IC50,[10],1 nM
CO[C@H]1C[C@@H]2CC[C@@H](C)[C@@](O)(O2)C(=O)C(=O)N2CCCC[C@H]2C(=O)O[C@H]([C@H](C)C[C@@H]2CC[C@@H](OCCO)[C@H](OC)C2)CC(=O)[C@H](C)/C=C(\C)[C@@H](O)[C@@H](OC)C(=O)[C@H](C)C[C@H](C)/C=C/C=C/C=C/1C [everolimus],ORR,[11],5%
same,median PFS,[11],11.0 months
same,ORR,[12],2%
same,median PFS,[12],11.0 months
CCN(CC)CCNC(=O)c1c(C)[nH]c(/C=C2\C(=O)Nc3ccc(F)cc32)c1C [sunitinib],ORR,[13],9.3%
same,PFS,[13],11.0 months
